Results as given in patent US10004701B2, “Methods and compositions for treating infection” (UNIVERSITY OF ROCHESTER, priority 2012, dated 2018).
Where a name gives a salt, the structure may show the parent alone. Read-outs that look alike come from different tables or passages of the source.

Legend:
Assay in all cases: AK assay 384-well format, Prestwick library screening
[1] = tested on: E. faecium; assay type: cell-based, Enterococcus faecium; conditions: 50 μM final drug concentration; for fold induction at 50 µM: Enterococcus faecium, 3 h
[2] = tested on: S. aureus strain USA300-0114; assay type: cell-based, Staphylococcus aureus; conditions: 50 μM final drug concentration; for fold induction at 50 µM: Staphylococcus aureus, USA300, 3 h
[3] = tested on: K. pneumoniae; assay type: cell-based, Klebsiella pneumoniae; conditions: 50 μM final drug concentration; for fold induction at 50 µM: Klebsiella pneumoniae, 3 h
[4] = tested on: A. baumannii strain 98-37-09; assay type: cell-based, Acinetobacter baumannii; conditions: 50 μM final drug concentration; for fold induction at 50 µM: Acinetobacter baumannii, 983709, 3 h
[5] = tested on: P. aeruginosa; assay type: cell-based, Pseudomonas aeruginosa; conditions: 50 μM final drug concentration; for fold induction at 50 µM: Pseudomonas aeruginosa, 3 h
[6] = tested on: E. cloacae; assay type: cell-based, Enterobacter cloacae; conditions: 50 μM final drug concentration; for fold induction at 50 µM: Enterobacter cloacae, 3 h
[7] = tested on: E. coli; assay type: cell-based, Escherichia coli; conditions: 50 μM final drug concentration; for fold induction at 50 µM: Escherichia coli, 3 h
[8] = planktonic E. faecium, 384-well, cutoff for positive-scoring molecules 3-fold increase, read-out: AK-based Prestwick Library Screening Results: E. faecium (increase in extracellular AK activity)
[9] = planktonic S. aureus, 384-well, cutoff for positive-scoring molecules 3-fold increase, read-out: AK-based Prestwick Library Screening Results: S. aureus (increase in extracellular AK activity)
[10] = planktonic K. pneumoniae, 384-well, cutoff for positive-scoring molecules 3-fold increase, read-out: AK-based Prestwick Library Screening Results: K. pneumoniae (increase in extracellular AK activity)
[11] = planktonic A. baumannii, 384-well, cutoff for positive-scoring molecules 3-fold increase, read-out: AK-based Prestwick Library Screening Results: A. baumannii (increase in extracellular AK activity)
[12] = planktonic P. aeruginosa, 384-well, cutoff for positive-scoring molecules 3-fold increase, read-out: AK-based Prestwick Library Screening Results: P. aeruginosa (increase in extracellular AK activity)
[13] = planktonic E. cloacae, 384-well, cutoff for positive-scoring molecules 3-fold increase, read-out: AK-based Prestwick Library Screening Results: E. cloacae (increase in extracellular AK activity)
[14] = planktonic E. coli, 384-well, cutoff for positive-scoring molecules 3-fold increase, read-out: AK-based Prestwick Library Screening Results: E. coli (increase in extracellular AK activity)
[15] = planktonic, cutoff for positive 3-fold increase

In the case of `CNCCCC12CCC(c3ccccc31)c1ccccc12` [Maprotiline hydrochloride], the fold induction at 50 µM ([1]; planktonic E. faecium, cutoff for positive-scoring molecules 3-fold increase, read-out: AK-based Prestwick Library Screening Results, E. faecium (increase in extracellular AK activity)) is reported as 0.8, the fold induction at 50 µM ([2]; planktonic S. aureus, cutoff for positive-scoring molecules 3-fold increase, read-out: AK-based Prestwick Library Screening Results, S. aureus (increase in extracellular AK activity)) is reported as 1.1 and the fold induction at 50 µM ([3]; planktonic K. pneumoniae, cutoff for positive-scoring molecules 3-fold increase, read-out: AK-based Prestwick Library Screening Results, K. pneumoniae (increase in extracellular AK activity)) is reported as 0.6. It also gave a fold induction at 50 µM ([4]; planktonic A. baumannii, cutoff for positive-scoring molecules 3-fold increase, read-out: AK-based Prestwick Library Screening Results, A. baumannii (increase in extracellular AK activity)) of 0.8, a fold induction at 50 µM ([5]; planktonic P. aeruginosa, cutoff for positive-scoring molecules 3-fold increase, read-out: AK-based Prestwick Library Screening Results, P. aeruginosa (increase in extracellular AK activity)) of 0.9 and a fold induction at 50 µM ([6]; planktonic E. cloacae, cutoff for positive-scoring molecules 3-fold increase, read-out: AK-based Prestwick Library Screening Results, E. cloacae (increase in extracellular AK activity)) of 0.9. The fold induction at 50 µM ([7]; planktonic E. coli, cutoff for positive-scoring molecules 3-fold increase, read-out: AK-based Prestwick Library Screening Results, E. coli (increase in extracellular AK activity)) was 0.8.
`COC(=O)Nc1nc2ccc(C(=O)c3ccccc3)cc2[nH]1` [Mebendazole] showed a fold induction at 50 µM [1, 8] of 0.9, a fold induction at 50 µM [2, 9] of 0.9 and a fold induction at 50 µM [3, 10] of 0.8. The fold induction at 50 µM [4, 11] was 0.7, the fold induction at 50 µM [5, 12] was 0.8 and the fold induction at 50 µM [6, 13] was 1.2. The fold induction at 50 µM [7, 14] was 0.8.
`CCN(CCCCOC(=O)c1ccc(OC)c(OC)c1)C(C)Cc1ccc(OC)cc1` (stereo not shown) [Mebeverine hydrochloride] was tested, and the fold induction at 50 µM [1, 8] was 1, the fold induction at 50 µM [2, 9] was 1.1 and the fold induction at 50 µM [3, 10] was 1. The fold induction at 50 µM [4, 11] was 1.4, the fold induction at 50 µM [5, 12] was 1.1 and the fold induction at 50 µM [6, 13] was 1.3. For the same compound, the fold induction at 50 µM [7, 14] was 1.3.
In the case of `CN1CCc2c(c3ccccc3n2Cc2ccccc2)C1.O=S(=O)(O)c1cccc2c(S(=O)(=O)O)cccc12` [Mebhydroline 1,5-naphtalenedisulfonate], the “AK-based Prestwick Library Screening Results, E. faecium (fold increase in extracellular AK activity)” value [1, 15] is reported as 1.0, the “AK-based Prestwick Library Screening Results, S. aureus (fold increase in extracellular AK activity)” value [2, 15] is reported as 0.9 and the “AK-based Prestwick Library Screening Results, K. pneumoniae (fold increase in extracellular AK activity)” value [3, 15] is reported as 0.8. For the same compound, the “AK-based Prestwick Library Screening Results, A. baumannii (fold increase in extracellular AK activity)” value [4, 15] was 0.9, the “AK-based Prestwick Library Screening Results, P. aeruginosa (fold increase in extracellular AK activity)” value [5, 15] was 1.1 and the “AK-based Prestwick Library Screening Results, E. cloacae (fold increase in extracellular AK activity)” value [6, 15] was 1.5. The “AK-based Prestwick Library Screening Results, E. coli (fold increase in extracellular AK activity)” value [7, 15] was 1.1.
Work on `CNC1(C)C2CCC(C2)C1(C)C` (stereo not shown) [Mecamylamine hydrochloride] yielded a fold induction at 50 µM ([1]; planktonic E. faecium, positive cutoff 3-fold increase, read-out: AK-based Prestwick library screening result, E. faecium (fold increase in extracellular AK activity)) of 1.1, a fold induction at 50 µM ([2]; planktonic S. aureus, positive cutoff 3-fold increase, read-out: AK-based Prestwick library screening result, S. aureus (fold increase in extracellular AK activity)) of 1.4 and a fold induction at 50 µM ([3]; planktonic K. pneumoniae, positive cutoff 3-fold increase, read-out: AK-based Prestwick library screening result, K. pneumoniae (fold increase in extracellular AK activity)) of 1. For the same compound, the fold induction at 50 µM ([4]; planktonic A. baumannii, positive cutoff 3-fold increase, read-out: AK-based Prestwick library screening result, A. baumannii (fold increase in extracellular AK activity)) was 1.2, the fold induction at 50 µM ([5]; planktonic P. aeruginosa, positive cutoff 3-fold increase, read-out: AK-based Prestwick library screening result, P. aeruginosa (fold increase in extracellular AK activity)) was 1.1 and the fold induction at 50 µM ([6]; planktonic E. cloacae, positive cutoff 3-fold increase, read-out: AK-based Prestwick library screening result, E. cloacae (fold increase in extracellular AK activity)) was 1.6. It also gave a fold induction at 50 µM ([7]; planktonic E. coli, positive cutoff 3-fold increase, read-out: AK-based Prestwick library screening result, E. coli (fold increase in extracellular AK activity)) of 1.4.
In the case of `C=C1c2c(Cl)ccc(O)c2C(=O)C2=C(O)[C@]3(O)C(=O)C(C(N)=O)=C(O)[C@@H](N(C)C)[C@@H]3[C@@H](O)[C@H]12.O=C(O)c1cc(S(=O)(=O)O)ccc1O` [Meclocycline sulfosalicylate], the “AK-based Prestwick Library Screening Results, E. faecium (fold increase in extracellular AK activity)” value [1, 15] is reported as 1.0, the “AK-based Prestwick Library Screening Results, S. aureus (fold increase in extracellular AK activity)” value [2, 15] is reported as 4.3 and the “AK-based Prestwick Library Screening Results, K. pneumoniae (fold increase in extracellular AK activity)” value [3, 15] is reported as 0.3. The “AK-based Prestwick Library Screening Results, A. baumannii (fold increase in extracellular AK activity)” value [4, 15] was 3.2, the “AK-based Prestwick Library Screening Results, P. aeruginosa (fold increase in extracellular AK activity)” value [5, 15] was 0.5 and the “AK-based Prestwick Library Screening Results, E. cloacae (fold increase in extracellular AK activity)” value [6, 15] was 2.1. For the same compound, the “AK-based Prestwick Library Screening Results, E. coli (fold increase in extracellular AK activity)” value [7, 15] was 0.8.
`CN(C)CCOC(=O)COc1ccc(Cl)cc1` [Meclofenoxate hydrochloride] was tested, and the fold induction at 50 µM ([1]; planktonic, […], read-out: AK-based Prestwick Library Screening Results, E. faecium (fold increase in extracellular AK activity)) was 1, the fold induction at 50 µM ([2]; planktonic, […], read-out: AK-based Prestwick Library Screening Results, S. aureus (fold increase in extracellular AK activity)) was 1.2 and the fold induction at 50 µM ([3]; planktonic, […], read-out: AK-based Prestwick Library Screening Results, K. pneumoniae (fold increase in extracellular AK activity)) was 1. For the same compound, the fold induction at 50 µM ([4]; planktonic, […], read-out: AK-based Prestwick Library Screening Results, A. baumannii (fold increase in extracellular AK activity)) was 1, the fold induction at 50 µM ([5]; planktonic, […], read-out: AK-based Prestwick Library Screening Results, P. aeruginosa (fold increase in extracellular AK activity)) was 1.1 and the fold induction at 50 µM ([6]; planktonic, […], read-out: AK-based Prestwick Library Screening Results, E. cloacae (fold increase in extracellular AK activity)) was 1.4. It also gave a fold induction at 50 µM ([7]; planktonic, […], read-out: AK-based Prestwick Library Screening Results, E. coli (fold increase in extracellular AK activity)) of 1.2.
For `Cc1cccc(CN2CCN(C(c3ccccc3)c3ccc(Cl)cc3)CC2)c1` (stereo not shown) [Meclozine dihydrochloride], the fold induction at 50 µM ([1]; planktonic, cutoff for positive 3-fold increase, read-out: AK-based Prestwick Library Screening Results, E. faecium (fold increase in extracellular AK activity)) was 1.2, the fold induction at 50 µM ([2]; planktonic, cutoff for positive 3-fold increase, read-out: AK-based Prestwick Library Screening Results, S. aureus (fold increase in extracellular AK activity)) was 2.1 and the fold induction at 50 µM ([3]; planktonic, cutoff for positive 3-fold increase, read-out: AK-based Prestwick Library Screening Results, K. pneumoniae (fold increase in extracellular AK activity)) was 0.9. It also gave a fold induction at 50 µM ([4]; planktonic, cutoff for positive 3-fold increase, read-out: AK-based Prestwick Library Screening Results, A. baumannii (fold increase in extracellular AK activity)) of 1.9, a fold induction at 50 µM ([5]; planktonic, cutoff for positive 3-fold increase, read-out: AK-based Prestwick Library Screening Results, P. aeruginosa (fold increase in extracellular AK activity)) of 1.2 and a fold induction at 50 µM ([6]; planktonic, cutoff for positive 3-fold increase, read-out: AK-based Prestwick Library Screening Results, E. cloacae (fold increase in extracellular AK activity)) of 1.4. The fold induction at 50 µM ([7]; planktonic, cutoff for positive 3-fold increase, read-out: AK-based Prestwick Library Screening Results, E. coli (fold increase in extracellular AK activity)) was 1.2.
In the case of `CC(=O)[C@H]1CC[C@H]2[C@@H]3C[C@H](C)C4=CC(=O)CC[C@]4(C)[C@H]3[C@@H](O)C[C@]12C` [Medrysone], the fold induction at 50 µM ([1]; planktonic, cutoff for positive-scoring molecules 3-fold increase, read-out: AK-based Prestwick Library Screening Results, E. faecium (fold increase in extracellular AK activity)) is reported as 1, the fold induction at 50 µM ([2]; planktonic, cutoff for positive-scoring molecules 3-fold increase, read-out: AK-based Prestwick Library Screening Results, S. aureus (fold increase in extracellular AK activity)) is reported as 0.6 and the fold induction at 50 µM ([3]; planktonic, cutoff for positive-scoring molecules 3-fold increase, read-out: AK-based Prestwick Library Screening Results, K. pneumoniae (fold increase in extracellular AK activity)) is reported as 0.7. For the same compound, the fold induction at 50 µM ([4]; planktonic, cutoff for positive-scoring molecules 3-fold increase, read-out: AK-based Prestwick Library Screening Results, A. baumannii (fold increase in extracellular AK activity)) was 0.7, the fold induction at 50 µM ([5]; planktonic, cutoff for positive-scoring molecules 3-fold increase, read-out: AK-based Prestwick Library Screening Results, P. aeruginosa (fold increase in extracellular AK activity)) was 0.8 and the fold induction at 50 µM ([6]; planktonic, cutoff for positive-scoring molecules 3-fold increase, read-out: AK-based Prestwick Library Screening Results, E. cloacae (fold increase in extracellular AK activity)) was 1. It also gave a fold induction at 50 µM ([7]; planktonic, cutoff for positive-scoring molecules 3-fold increase, read-out: AK-based Prestwick Library Screening Results, E. coli (fold increase in extracellular AK activity)) of 0.7.
For `Cc1cccc(Nc2ccccc2C(=O)O)c1C` [Mefenamic acid], the fold induction at 50 µM [1, 8] was 0.9, the fold induction at 50 µM [2, 9] was 0.7 and the fold induction at 50 µM [3, 10] was 0.8. It also gave a fold induction at 50 µM [4, 11] of 1.2, a fold induction at 50 µM [5, 12] of 0.9 and a fold induction at 50 µM [6, 13] of 1.6. It also gave a fold induction at 50 µM [7, 14] of 0.9.
